ChEMBL document CHEMBL1201862, “PubChem BioAssay data set” (2004)
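Briefly, cells in 96-well plates were exposed to five compound concentrations for 48 h, and endpoints were estimated by linear interpolation. Abbreviation: GI50, concentration required for 50% inhibition of growth.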 Activity calls are given as the source filed them. Cut-off read from the data, not from the text of the source: active = GI50 up to about 1.1 µM and inactive = higher.

Columns and labels:
Assay in all cases: growth of human tumour cells (NCI), 48 h
[1] = test system: NCI-H23
[2] = test system: DLD-1
[3] = test system: NCI-H460
[4] = test system: Malme-3M
[5] = test system: SNB-75
[6] = test system: SF-539
[7] = test system: EKVX
[8] = test system: OVCAR-8
[9] = test system: SK-MEL-28
[10] = test system: OVCAR-5
[11] = test system: SF-295
[12] = test system: LOX IMVI
[13] = test system: 786-0
[14] = test system: SK-MEL-2
[15] = test system: OVCAR-4
[16] = test system: KM-20L2
[17] = test system: HCT-15
[18] = test system: MOLT-4
[19] = test system: SK-MEL-5
[20] = test system: A498
[21] = test system: SN12C
[22] = test system: SF-268
[23] = test system: TK-10
[24] = test system: RXF 393
[25] = test system: HOP-92
[26] = test system: UACC-257
[27] = test system: HL-60
[28] = test system: A549
[29] = test system: SNB-19
[30] = test system: U-251
[31] = test system: SNB-78
[32] = test system: CCRF-CEM
[33] = test system: HCC 2998
[34] = test system: UO-31
[35] = test system: KM12
[36] = test system: IGROV-1
[37] = test system: SR
[38] = test system: HCT-116
[39] = test system: CAKI-1
[40] = test system: UACC-62
[41] = test system: RPMI-8226
[42] = test system: HT-29
[43] = test system: SK-OV-3
[44] = test system: M14
[45] = test system: DMS-114
[46] = test system: SW-620
[47] = test system: K562
[48] = test system: ACHN
[49] = test system: NCI-H226
[50] = test system: COLO 205
[51] = test system: MDA-MB-435
[52] = test system: OVCAR-3
[53] = test system: DU-145
[54] = test system: BT-549
[55] = test system: MCF7
[56] = test system: Hs-578T
[57] = test system: NCI-H522
[58] = test system: MDA-N
[59] = test system: NCI/ADR-RES
[60] = test system: PC-3
[61] = test system: MDA-MB-231
[62] = test system: HOP-62
[63] = test system: T47D

CCOC(=O)c1[nH]c2cc(OC)c(OC)cc2c1CN(C)C
GI50 [1]: > 100 µM (inactive) | GI50 [2]: > 100 µM (inactive) | GI50 [3]: > 100 µM (inactive) | GI50 [4]: > 100 µM (inactive) | GI50 [5]: 67 µM (inactive) | GI50 [6]: > 100 µM (inactive) | GI50 [7]: > 100 µM (inactive) | GI50 [8]: > 100 µM (inactive) | GI50 [9]: > 100 µM (inactive) | GI50 [10]: > 100 µM (inactive) | GI50 [11]: > 100 µM (inactive) | GI50 [12]: > 100 µM (inactive) | GI50 [13]: > 100 µM (inactive) | GI50 [14]: > 100 µM (inactive) | GI50 [15]: > 100 µM (inactive) | GI50 [16]: > 100 µM (inactive) | GI50 [17]: > 100 µM | GI50 [18]: > 100 µM (inactive) | GI50 [19]: > 100 µM (inactive) | GI50 [20]: > 100 µM (inactive) | GI50 [21]: > 100 µM (inactive) | GI50 [22]: > 100 µM (inactive) | GI50 [23]: > 100 µM (inactive) | GI50 [24]: > 100 µM (inactive) | GI50 [25]: > 100 µM (inactive) | GI50 [26]: > 100 µM (inactive) | GI50 [27]: > 100 µM (inactive) | GI50 [28]: > 100 µM (inactive) | GI50 [29]: > 100 µM (inactive) | GI50 [30]: > 100 µM (inactive) | GI50 [31]: > 100 µM (inactive) | GI50 [32]: > 100 µM (inactive) | GI50 [33]: > 100 µM (inactive) | GI50 [34]: > 100 µM (inactive) | GI50 [35]: > 100 µM (inactive) | GI50 [36]: > 100 µM (inactive) | GI50 [37]: > 100 µM (inactive) | GI50 [38]: > 100 µM (inactive) | GI50 [39]: > 100 µM (inactive) | GI50 [40]: > 100 µM (inactive) | GI50 [41]: > 100 µM (inactive) | GI50 [42]: > 100 µM (inactive) | GI50 [43]: > 100 µM (inactive) | GI50 [44]: > 100 µM (inactive) | GI50 [45]: > 100 µM (inactive) | GI50 [46]: > 100 µM (inactive) | GI50 [47]: > 100 µM (inactive) | GI50 [48]: > 100 µM (inactive) | GI50 [49]: > 100 µM (inactive)

CC1=NN(C(=O)CC(=O)Nc2ccc(C)cc2)C(=O)C1/N=N\c1ccc(S(=O)(=O)c2ccc(/N=N/C3C(=O)N(C(=O)CC(=O)Nc4ccc(C)cc4)N=C3C)cc2)cc1 (stereo not drawn)
GI50 [1]: > 100 µM (inactive) | GI50 [3]: 38.5 µM (inactive) | GI50 [50]: > 100 µM (inactive) | GI50 [4]: 67 µM (inactive) | GI50 [51]: 84.3 µM (inactive) | GI50 [52]: 64.6 µM (inactive) | GI50 [53]: > 100 µM (inactive) | GI50 [5]: > 100 µM (inactive) | GI50 [6]: > 100 µM (inactive) | GI50 [7]: > 100 µM (inactive) | GI50 [8]: 64.6 µM (inactive) | GI50 [9]: > 100 µM (inactive) | GI50 [10]: > 100 µM (inactive) | GI50 [11]: > 100 µM (inactive) | GI50 [12]: 16.2 µM (inactive) | GI50 [13]: 21 µM (inactive) | GI50 [14]: 58.6 µM (inactive) | GI50 [15]: > 100 µM (inactive) | GI50 [17]: 44.6 µM | GI50 [18]: 42.5 µM (inactive) | GI50 [19]: 58.9 µM (inactive) | GI50 [20]: > 100 µM (inactive) | GI50 [21]: 50.1 µM (inactive) | GI50 [22]: > 100 µM (inactive) | GI50 [54]: > 100 µM (inactive) | GI50 [23]: > 100 µM (inactive) | GI50 [24]: > 100 µM (inactive) | GI50 [55]: > 100 µM (inactive) | GI50 [56]: 93.8 µM (inactive) | GI50 [25]: > 100 µM (inactive) | GI50 [26]: > 100 µM (inactive) | GI50 [27]: 16.4 µM (inactive) | GI50 [28]: 31.6 µM (inactive) | GI50 [29]: > 100 µM (inactive) | GI50 [30]: 52.1 µM (inactive) | GI50 [57]: 23.3 µM (inactive) | GI50 [32]: 9.4 µM (inactive) | GI50 [33]: 83.6 µM (inactive) | GI50 [58]: 69.7 µM (inactive) | GI50 [34]: > 100 µM (inactive) | GI50 [35]: 65.6 µM (inactive) | GI50 [36]: 28.4 µM (inactive) | GI50 [37]: 27.5 µM (inactive) | GI50 [59]: > 100 µM (inactive) | GI50 [38]: 43.4 µM (inactive) | GI50 [60]: 72.4 µM (inactive) | GI50 [39]: > 100 µM (inactive) | GI50 [40]: 65.9 µM (inactive) | GI50 [41]: 82.4 µM (inactive) | GI50 [61]: 35.6 µM (inactive) | GI50 [42]: > 10 µM (inactive) | GI50 [43]: 72.4 µM (inactive) | GI50 [62]: > 100 µM (inactive) | GI50 [44]: 38 µM (inactive) | GI50 [46]: 32.7 µM (inactive) | GI50 [63]: > 100 µM (inactive) | GI50 [47]: 4.98 µM (inactive) | GI50 [48]: 62.8 µM (inactive) | GI50 [49]: > 100 µM (inactive)
